Columns and labels:
[1] = system: HeLa (cervical adenocarcinoma) cells; assay: Cell viability IC50 (Table 3); type: cell-based, human
Method: (§1) To date, 30 variants with different structural modifications have been made. […] In particular, it is shown that C75 causes death in multiple cancer cells with IC50 values in the 100-400 nM range, including breast cancers (MCF7, BT549), lung cancer (A549), colorectal cancer (HCT116) in addition to HeLa cells (cervical cancer).

A549 cells [2] = assay: IC50 of derivatives (Table 5); type: cell-based, human; settings: for IC50: Table 5, cell line only named in b213 (A549)
[3] = system: MCF7, BT549, A549, HCT116, HeLa cells; assay: Viability in cancer vs non-cancer cell lines, summary of Table 3; type: cell-based, human
Method: as §1

A549 cells [4] = assay: Spindle morphology, DAPI and tubulin staining; type: cell-based, human; settings: 300 nM, 4 hours
Method: FIG. 1A) is a line graph showing changes in the percentage of viable HFF-1, HeLa, A549 and HCT 116 cells after treatment with a range of C75 concentrations for 3 population doubling times (N=3). […] FIG. 1C) is a line graph showing the percentage of HeLa and HFF1 cells in mitosis after treatment with various concentrations of C75 for 8 hours. The bars indicate standard deviation. FIG. 1D) is a series of images showing cells that were fixed and co-stained for tubulin (microtubules) and DAPI (DNA). […] The scale bar for the cells is 10 μm. […] FIG. 1F) is a cartoon schematic showing the key features of a metaphase cell.

HCT116 spheroids = assay: Multicellular tumour spheroids; type: cell-based; settings: 10 nM paclitaxel or 250 nM C75 alone, 6 days
Method: FIGS. 5A, 5B, 5C, 5D, 5E, 5F, 5G, 5H, 5I, 5J, 5K, 5L and 5M show how C75 disrupts or reduces the growth of HeLa, HCT116 and A549 spheroids. FIG. 5A) images show HeLa spheroids over time (3 days) before and after treatment with control (1 μM C87; n=10), 250 nM (n=6) or 500 nM (n=10) of C75. The scale bar is 100 μm. FIG. 5B) is a series images of HeLa spheroids after three days of treatment with control (500 nM C87) or 500 nM C75. The spheroids were stained for fluorescein diacetate (to detect live cells) and propidium iodide (to detect dead cells). […] The scale bar is 100 μm. FIG. 5C) is a line graph showing the change in spheroid area (μm^2) for each day and treatment as indicated. Bars show standard deviation and the asterisks are p<0.05 as determined by the student's t test. FIG. 5D) images show HeLa spheroids over 3 days before and after treatment with empty nanoparticles (control; n=3) or 250 nM of nanoparticle-encapsulated C75 (n=3). The scale bar is 100 μm. […] Bars show standard deviation and the asterisks are p<0.05 as determined by the student's t test. FIG. 5F) is a series of images of HCT116 spheroids treated with control (1 μM C87; n=10), 500 nM C75 (n=10) and 1 μM C75 (n=10). FIG. 5G) is a series images of HCT116 spheroids after six days of treatment with control (1 μM C87) or 1 μM C75. The spheroids were stained for fluorescein diacetate (live cells) and propidium iodide (dead cells). […] FIG. 5H) is a line graph showing the growth in surface area (%) of HCT116 spheroids treated with control (1 μM C87), 500 nM C75 and 1 μM C75 after six days. FIG. 5I) is a series of images of A549 spheroids treated with control (1 μM C87, n=6), 500 nM C75 (n=6), and 1 μM C75 (n=6) over 5 days. The scale bar is 100 μm. FIG. 5J) is a series of images of A549 spheroids after six days of treatment with control (750 nM C87) or 1 μM C75. The spheroids were stained for fluorescein diacetate (live cells) and propidium iodide (dead cells). […] Bars show standard deviation and the asterisks are p<0.05 as determined by the student's t test. FIG. 5L) images show A549 spheroids over 6 days before and after treatment with empty nanoparticles (control; n=3) or 500 nM of nanoparticle-encapsulated C75 (n=3). The scale bar is 100 μm. […] Bars show standard deviation and the asterisks are p<0.05 as determined by the student's t test.
FIG. 11A) is a series of images of HCT116 spheroids treated with control (DMSO), 10 nM paclitaxel, 250 nM C75 or both for 6 days. […] The scale bar for the images is 100 μm. […] As shown in the images, adding paclitaxel and C75 in combination led to regression in spheroid size compared to each treatment on its own.
The thienoisoquinoline compounds may also have potential for use in combinatorial therapies. […]

| IC50 [1] | IC50 (A549 cells [2]) | Structure (SMILES) | other results |
| --- | --- | --- | --- |
| > 1000 nM | > 1000 nM | Cc1cccc(S(=O)(=O)N2Cc3ccccc3-c3sccc32)c1 [Compound C39] | – |
| > 1000 nM | > 1000 nM | Cc1ccc(S(=O)(=O)N2Cc3ccccc3-c3sc(-c4ccccc4)cc32)cc1 [Compound C71] | – |
| > 1000 nM | > 1000 nM | Cc1ccc(S(=O)(=O)N2Cc3ccccc3-c3sc(Br)cc32)cc1 [Compound C74] | – |
| – | – | Cc1ccc(S(=O)(=O)N2Cc3ccccc3-c3sccc32)cc1 [Compound C91] | efficacy (effect on viability) in cancer cells vs. non-cancer cells [3]: higher efficacy; IC50 (A549 cells [2]; Homo sapiens): > 1000 nM |
| > 1000 nM | – | Cc1cccc(S(=O)(=O)N2Cc3ccccc3-c3sc(Br)cc32)c1 [Compound C93] | – |
| > 1000 nM | > 1000 nM | O=S(=O)(c1ccc(C(F)(F)F)cc1)N1Cc2ccccc2-c2sccc21 [Compound C108] | – |
| – | > 1000 nM | CC(C)(C)c1ccc(S(=O)(=O)N2Cc3ccccc3-c3sccc32)cc1 [Compound C109] | – |
| – | 635 nM | COc1ccc(S(=O)(=O)N2Cc3ccccc3-c3scc(C)c32)cc1 [Compound C127] | – |
| – | 549 nM | COc1ccc(S(=O)(=O)N2Cc3ccccc3-c3sc(Cl)c(C)c32)cc1 [Compound C128] | – |
| – | 439 nM | COc1ccc(S(=O)(=O)N2Cc3cccc([N+](=O)[O-])c3-c3sccc32)cc1 [Compound C130] | – |
| – | 801 nM | COc1ccc(S(=O)(=O)N2Cc3cccc([N+](=O)[O-])c3-c3sc(Br)cc32)cc1 [Compound C131] | – |
| – | > 1000 nM | COc1ccc(S(=O)(=O)N2Cc3cccc(N)c3-c3sccc32)cc1 [Compound C132] | – |
| – | > 1000 nM | COc1ccc(S(=O)(=O)N2Cc3c(Br)ccc(N)c3-c3sc(Br)cc32)cc1 [Compound C133] | – |
| – | 416 nM | COc1ccc(S(=O)(=O)N2Cc3ccccc3-c3sc(C=O)c(C)c32)cc1 [Compound C138] | – |
| – | > 1000 nM | COc1ccc(S(=O)(=O)N2Cc3ccccc3-c3sc(Br)c(C)c32)cc1 [Compound C139] | – |
| – | 260 nM | COc1ccc(S(=O)(=O)N2Cc3ccccc3-c3sc(C=O)cc32)cc1 [Compound C140] | spindle phenotype (A549 cells [4]): causes spindle phenotypes similar to C75; efficacy relative to C75 (A549 cells [2]; A549 cells): higher efficacy |
| – | > 1000 nM | COc1ccc(S(=O)(=O)N2Cc3ccccc3-c3sc(C(=O)O)cc32)cc1 [Compound C141] | – |
| – | 456 nM | Cc1ccc(S(=O)(=O)N2Cc3ccccc3-c3sc(C=O)cc32)cc1 [Compound C142] | – |
| – | > 1000 nM | Cc1ccc(S(=O)(=O)N2Cc3ccccc3-c3sc(C(=O)O)cc32)cc1 [Compound C143] | – |
| > 1000 nM | > 1000 nM | O=S(=O)(c1ccc(C(F)(F)F)cc1)N1Cc2ccccc2-c2sc(Br)cc21 [Compound C200] | – |
| > 1000 nM | > 1000 nM | CC(C)(C)c1ccc(S(=O)(=O)N2Cc3ccccc3-c3sc(Br)cc32)cc1 [Compound C201] | – |
| 204 nM | 434 nM | COc1ccc(S(=O)(=O)N2Cc3ccccc3-c3sc(Cl)cc32)cc1 [Compound C208] | – |
| – | > 1000 nM | COc1ccc(S(=O)(=O)N2Cc3cc4c(cc3-c3sccc32)OCO4)cc1 [Compound C300] | – |
| – | > 1000 nM | COc1ccc(S(=O)(=O)N2Cc3cc4c(cc3-c3sc(Br)cc32)OCO4)cc1 [Compound C301] | – |
| – | – | CC(=O)O[C@H]1C(=O)[C@@]2(C)[C@H]([C@H](OC(=O)c3ccccc3)[C@]3(O)C[C@H](OC(=O)[C@H](O)[C@@H](NC(=O)c4ccccc4)c4ccccc4)C(C)=C1C3(C)C)[C@]1(OC(C)=O)CO[C@@H]1C[C@@H]2O [paclitaxel, reference compound] | spheroid growth, single drug (HCT116 spheroids): failed to grow |

From patent US20200276181A1, “THIENOISOQUINOLINES AND THEIR DERIVATIVES FOR TARGETING TUBULIN, CH-TOG, AURORA A KINASE, TPX2, CDK5RAP2 AND/OR ASPM” (VALORBEC, SEC, priority 2017, published 2020)
